Source: patent US20040077634A1, “Treatment of diseases characterized by excessive or insufficient cell death” (priority 2001, published 2004)

How the values were obtained:
MCF-neo cells = test: TNF-induced cell death of MCF-neo cells; assay type: cell-based
Description: (§1) The ability of compound f to inhibit cell death was examined in MCF-neo and MCF-casp3 cells. […] To analyse the mechanism of the action of compound f in alive cells, MCF-casp3 cells were treated with TNF (5 ng/ml) in the presence of 50 μM compound f and the activity of caspase-3-like proteases was measured by a DEVDase enzyme assay.

recombinant caspase-9 = target: T1, recombinant caspase-9 (Homo sapiens, UniProt P55211); test: Recombinant caspase-9 activity, cleavage of LEHD-AFC; assay type: biochemical; conditions: 25 to 100 μM; LEHD-AFC substrate
T1 sequence (P55211 1-315 limits assumed): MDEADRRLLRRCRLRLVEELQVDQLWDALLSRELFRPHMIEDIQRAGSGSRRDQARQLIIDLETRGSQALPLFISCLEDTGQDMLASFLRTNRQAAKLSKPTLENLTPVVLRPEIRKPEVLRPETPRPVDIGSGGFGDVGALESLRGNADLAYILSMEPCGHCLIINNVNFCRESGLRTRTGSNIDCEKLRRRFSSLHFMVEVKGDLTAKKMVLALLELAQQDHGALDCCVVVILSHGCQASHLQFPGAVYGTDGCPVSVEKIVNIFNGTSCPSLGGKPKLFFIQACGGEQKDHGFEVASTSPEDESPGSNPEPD
T1 sequence (P55211 331-416 limits assumed): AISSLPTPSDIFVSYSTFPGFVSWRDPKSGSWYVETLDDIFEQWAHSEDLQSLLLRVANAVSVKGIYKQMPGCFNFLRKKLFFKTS
Description: The inhibition of the DEVDase activity in the in vitro caspase activation system could be due to a direct inhibition of caspase-9, -3, or -7 activities, or to the inhibition of the apoptosome formation. To test if compounds a, f, and g were specific caspase inhibitors, recombinant caspase-3 and caspase-9 were incubated with the three compounds and the enzymatic activities of caspases were monitored by analysing the cleavage of the caspase-3 substrate DEVD-AFC or the caspase-9 substrate LEHD-AFC, respectively.

MCF-casp3 cells = test: TNF-induced cell death of MCF-casp3 cells
Description: as §1

[1] = system: caspase-9, caspase-3 and caspase-7 processing; DFF45/ICAD and PARP cleavage; test: Processing of caspases and caspase substrates in Cc/dATP-stimulated cell extract, Western blotting; assay type: biochemical
Description: Activation of endogene caspases is induced by addition of 1 mM dATP and 1 μM horse heart cytochrome c to cytosolic extract (protein concentration; 5-10 mg/ml) in the presence of DEVD-AFC and the compound (final concentration 100 μM). Activated DEVD'ases (AFC release) is measured by fluorometry in 96-well plates at 37° C. After end measurements 2× LSB-Mechaptoethanol are added to the samples for assessment of caspase processing by immunoblot analysis.
Next, the effect of the compounds on the processing of caspases and caspase substrates in the in vitro model system was analysed by Western blotting. Caspase-9, caspase-3 and caspase-7 were processed into p35, p17, and p20 active fragments, respectively, in response to Cc/dATP. Accordingly, Cc/dATP induced a threefold induction in DEVDase activity and cleavage of the caspase-3 substrates DFF45/ICAD and PARP.

[2] = system: WEHI-S fibrosarcoma cells; test: TNF-induced caspase-independent cell death of WEHI-S fibrosarcoma cells; assay type: cell-based; conditions: 50-10 μM

## O=C(Nc1cccc(C(F)(F)F)c1)Nc1cc(Cl)ccc1C(=O)O [Compound f, [N-(2-Carboxy-5-chlorophenyl)-N′-(3-trifluoromethylphenyl)]urea]
MCF-neo cells; 1 ng/ml TNF, 50 μM
  cell death induced by TNF: completely blocked
MCF-neo cells; 5 ng/ml TNF, 50 μM
  protection against TNF-induced cell death: protection was still significant
MCF-neo cells; 10 ng/ml TNF
  inhibition of TNF-induced cell death: no inhibition
Recombinant caspase-9
  inhibition of recombinant caspase-9 activity: failed to inhibit
MCF-casp3 cells; 1 ng/ml TNF, 50 μM
  cell death induced by TNF: completely blocked
MCF-casp3 cells; 5 ng/ml TNF, 50 μM
  protection against TNF-induced cell death: protection was still significant
MCF-casp3 cells; 10 ng/ml TNF
  inhibition of TNF-induced cell death: no inhibition
[1]; 10 μM, compared with the vehicle control
  processing of caspase-9: slightly more procaspase-9 remained unprocessed
[1]; 100 μM
  processing of caspase-9: almost completely inhibited
[1]; cell extracts stimulated with Cc/dATP, Western blot, dose dependence
  inhibition of caspase-9, -3 and -7 processing and DFF45/ICAD and PARP cleavage: dose-dependent inhibition
[2]
  inhibition of the TNF-induced cell death: No inhibition
